Test results from article PMC9620001 (Journal of Medicinal Chemistry, 2022).
In brackets after ≈: the same amount, converted by molar mass. Where two headings read alike, the source gives them in different places.

Tests used:
in vitro [1] = settings: human, Caco-2, pH 7.4
in vitro [2] = settings: human, microsomes
Rat pharmacokinetics = type: in vivo, Sprague-Dawley rats; settings: male, Sprague-Dawley, plasma, iv, 1 mg/kg
Dog pharmacokinetics = type: in vivo, beagle dogs; settings: male, beagle, plasma, iv, 1 mg/kg
Human PKa = Human PKa (Homo sapiens, UniProt P03952); experiment: biochemical; type: biochemical
physchem = settings: aqueous buffer, kinetic from dmso stock
[3] = Thermodynamic solubility in FaSSIF / FaSSGF; type: physicochemical; settings: pH 6.5, solubility FaSSIF, theoretical concentration 1 mg/mL
factor XIa = factor XIa (Homo sapiens, UniProt P03951); experiment: biochemical; settings: IC50 / off target protease selectivity, FXIa
thrombin = thrombin (Homo sapiens, UniProt P00734); experiment: biochemical; settings: IC50 / off target protease selectivity
plasmin = plasmin (Homo sapiens, UniProt P00747); experiment: biochemical; settings: IC50 / off target protease selectivity
factor XIIa = molecular target: T1, factor XIIa (Homo sapiens, UniProt P00748); experiment: biochemical; settings: IC50 / off target protease selectivity, FXIIa
T1 sequence (P00748 373-615 limits assumed): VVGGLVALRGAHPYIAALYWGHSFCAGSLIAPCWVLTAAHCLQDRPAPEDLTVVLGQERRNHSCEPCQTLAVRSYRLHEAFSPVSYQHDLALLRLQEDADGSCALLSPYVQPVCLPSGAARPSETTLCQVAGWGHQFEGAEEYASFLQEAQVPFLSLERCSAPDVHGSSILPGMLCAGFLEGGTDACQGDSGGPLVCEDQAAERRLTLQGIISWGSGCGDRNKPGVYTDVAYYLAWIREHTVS

tissue kallikrein (KLK1) = tissue kallikrein (KLK1) (Homo sapiens, UniProt P06870); experiment: biochemical; settings: IC50 / off target protease selectivity
bacterial mutagenicity = experiment: Non-GLP bacterial mutagenicity Ames test
tryptase = experiment: Protease selectivity, fluorogenic substrate cleavage assay; type: biochemical, human; settings: read-out: IC50 / off target protease selectivity, tryptase
[4] = Human plasma protein binding; type: in vitro ADME; settings: % bound
trypsin = settings: read-out: IC50 / off target protease selectivity, trypsin
[5] = Measured pKa, PION UV-metric method; type: physicochemical
panel of CYP450 enzymes = experiment: CYP450 inhibition panel as a whole; settings: up to 25 μM
factor Xa = factor Xa (Homo sapiens, UniProt P00742); settings: read-out: IC50 / off target protease selectivity, FXa
hERG channel = hERG channel (Homo sapiens, UniProt Q12809); experiment: hERG whole-cell patch clamp; settings: highest level tested 33 μM
Sequence of hERG channel (Q12809 whole entry): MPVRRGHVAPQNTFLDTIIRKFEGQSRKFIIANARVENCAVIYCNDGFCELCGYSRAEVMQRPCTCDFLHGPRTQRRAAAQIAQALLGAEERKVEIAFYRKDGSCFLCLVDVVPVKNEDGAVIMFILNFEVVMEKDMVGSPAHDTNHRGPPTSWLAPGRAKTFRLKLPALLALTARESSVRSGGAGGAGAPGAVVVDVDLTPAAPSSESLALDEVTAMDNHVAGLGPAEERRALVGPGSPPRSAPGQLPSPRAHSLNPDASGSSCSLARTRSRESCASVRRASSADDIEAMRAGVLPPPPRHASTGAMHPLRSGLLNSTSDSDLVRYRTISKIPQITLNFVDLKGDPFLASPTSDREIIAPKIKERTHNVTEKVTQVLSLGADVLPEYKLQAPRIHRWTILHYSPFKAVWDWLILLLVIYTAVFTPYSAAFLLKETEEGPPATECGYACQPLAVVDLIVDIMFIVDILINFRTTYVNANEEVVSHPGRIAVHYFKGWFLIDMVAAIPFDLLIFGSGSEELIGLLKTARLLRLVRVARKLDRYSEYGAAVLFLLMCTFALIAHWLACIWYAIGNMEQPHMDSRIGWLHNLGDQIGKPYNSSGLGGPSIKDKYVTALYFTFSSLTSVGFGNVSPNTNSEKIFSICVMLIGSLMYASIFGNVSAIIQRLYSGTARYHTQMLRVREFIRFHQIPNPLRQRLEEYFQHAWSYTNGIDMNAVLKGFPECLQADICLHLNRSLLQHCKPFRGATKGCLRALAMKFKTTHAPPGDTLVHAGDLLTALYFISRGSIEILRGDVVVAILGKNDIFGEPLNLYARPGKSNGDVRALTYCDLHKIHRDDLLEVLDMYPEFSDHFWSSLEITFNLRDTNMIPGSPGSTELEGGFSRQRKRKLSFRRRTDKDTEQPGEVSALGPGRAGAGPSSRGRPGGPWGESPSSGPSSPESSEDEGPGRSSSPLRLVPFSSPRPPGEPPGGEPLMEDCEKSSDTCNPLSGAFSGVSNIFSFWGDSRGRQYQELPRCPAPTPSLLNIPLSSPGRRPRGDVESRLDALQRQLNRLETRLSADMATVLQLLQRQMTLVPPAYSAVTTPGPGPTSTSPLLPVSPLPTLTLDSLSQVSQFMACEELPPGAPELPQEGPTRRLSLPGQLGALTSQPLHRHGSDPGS

Sequence of Human PKa (P03952 391-638 limits assumed): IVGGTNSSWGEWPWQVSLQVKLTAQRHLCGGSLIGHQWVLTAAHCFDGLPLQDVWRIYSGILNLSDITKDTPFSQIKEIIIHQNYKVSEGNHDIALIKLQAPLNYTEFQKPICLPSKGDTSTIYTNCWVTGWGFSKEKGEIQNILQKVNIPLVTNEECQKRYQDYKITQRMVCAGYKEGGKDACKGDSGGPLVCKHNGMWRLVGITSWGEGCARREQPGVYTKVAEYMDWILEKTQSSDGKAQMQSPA
Sequence of Human PKa (P03952 20-390 partner limits assumed): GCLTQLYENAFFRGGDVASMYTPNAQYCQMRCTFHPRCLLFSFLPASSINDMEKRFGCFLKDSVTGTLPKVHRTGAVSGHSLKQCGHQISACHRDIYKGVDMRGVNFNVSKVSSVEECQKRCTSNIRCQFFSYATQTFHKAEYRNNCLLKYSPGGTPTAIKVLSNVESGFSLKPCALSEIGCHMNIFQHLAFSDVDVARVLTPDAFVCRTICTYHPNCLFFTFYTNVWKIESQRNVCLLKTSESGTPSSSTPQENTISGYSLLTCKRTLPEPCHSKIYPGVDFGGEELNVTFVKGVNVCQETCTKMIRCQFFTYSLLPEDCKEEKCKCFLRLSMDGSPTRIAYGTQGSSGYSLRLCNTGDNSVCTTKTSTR
Sequence of tissue kallikrein (KLK1) (P06870 25-262): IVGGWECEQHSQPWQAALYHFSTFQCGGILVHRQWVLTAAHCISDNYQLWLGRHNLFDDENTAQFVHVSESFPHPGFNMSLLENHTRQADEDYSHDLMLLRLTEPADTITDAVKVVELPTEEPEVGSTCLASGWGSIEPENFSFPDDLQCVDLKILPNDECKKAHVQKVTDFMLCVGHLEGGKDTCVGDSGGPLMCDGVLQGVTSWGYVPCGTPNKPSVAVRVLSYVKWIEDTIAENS
Sequence of factor XIa (P03951 388-625 limits assumed): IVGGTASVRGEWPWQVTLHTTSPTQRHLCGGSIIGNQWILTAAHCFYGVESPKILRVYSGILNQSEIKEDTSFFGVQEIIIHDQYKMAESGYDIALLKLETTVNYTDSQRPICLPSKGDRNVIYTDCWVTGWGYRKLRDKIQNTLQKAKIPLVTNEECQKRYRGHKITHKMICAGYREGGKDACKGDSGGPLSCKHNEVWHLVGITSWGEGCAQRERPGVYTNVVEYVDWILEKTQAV
Sequence of factor XIa (P03951 19-387 partner limits assumed): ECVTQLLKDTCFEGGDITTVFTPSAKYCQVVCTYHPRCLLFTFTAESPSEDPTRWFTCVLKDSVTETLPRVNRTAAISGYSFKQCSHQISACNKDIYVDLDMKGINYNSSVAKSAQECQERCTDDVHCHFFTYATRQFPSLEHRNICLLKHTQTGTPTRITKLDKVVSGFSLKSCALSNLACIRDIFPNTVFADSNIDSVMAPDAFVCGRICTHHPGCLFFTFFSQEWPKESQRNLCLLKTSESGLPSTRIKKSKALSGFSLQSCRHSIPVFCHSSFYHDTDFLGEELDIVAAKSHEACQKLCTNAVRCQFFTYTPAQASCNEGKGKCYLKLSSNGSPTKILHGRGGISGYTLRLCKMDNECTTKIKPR
Sequence of plasmin (P00747 581-810 limits assumed): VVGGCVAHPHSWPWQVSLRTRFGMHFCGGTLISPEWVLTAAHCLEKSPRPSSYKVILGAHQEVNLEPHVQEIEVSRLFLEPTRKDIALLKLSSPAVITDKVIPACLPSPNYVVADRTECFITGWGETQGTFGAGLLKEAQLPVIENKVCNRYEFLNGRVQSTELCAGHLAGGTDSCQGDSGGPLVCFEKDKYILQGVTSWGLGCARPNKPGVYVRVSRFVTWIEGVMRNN
Sequence of plasmin (P00747 97-580 partner limits assumed): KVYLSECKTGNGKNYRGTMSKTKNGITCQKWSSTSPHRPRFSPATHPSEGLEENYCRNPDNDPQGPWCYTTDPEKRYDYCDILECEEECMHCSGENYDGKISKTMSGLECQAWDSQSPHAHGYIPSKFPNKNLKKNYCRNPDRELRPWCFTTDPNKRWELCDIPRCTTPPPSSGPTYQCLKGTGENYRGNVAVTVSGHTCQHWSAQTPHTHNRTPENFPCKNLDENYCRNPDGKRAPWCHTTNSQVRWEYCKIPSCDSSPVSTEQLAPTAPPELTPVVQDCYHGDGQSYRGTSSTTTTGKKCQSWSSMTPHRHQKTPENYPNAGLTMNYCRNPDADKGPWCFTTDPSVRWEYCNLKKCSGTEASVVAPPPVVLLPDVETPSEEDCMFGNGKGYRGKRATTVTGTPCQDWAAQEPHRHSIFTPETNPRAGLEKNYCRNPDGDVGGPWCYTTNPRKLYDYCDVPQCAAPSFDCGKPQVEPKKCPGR
Sequence of factor Xa (P00742 235-488 limits assumed): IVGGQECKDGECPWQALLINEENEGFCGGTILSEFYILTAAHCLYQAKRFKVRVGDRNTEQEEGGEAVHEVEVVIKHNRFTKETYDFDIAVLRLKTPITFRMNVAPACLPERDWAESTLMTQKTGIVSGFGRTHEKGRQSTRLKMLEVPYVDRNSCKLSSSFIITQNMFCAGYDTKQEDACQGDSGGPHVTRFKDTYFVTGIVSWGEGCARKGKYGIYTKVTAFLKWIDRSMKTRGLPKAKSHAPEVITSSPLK
Sequence of factor Xa (P00742 41-179 partner limits assumed): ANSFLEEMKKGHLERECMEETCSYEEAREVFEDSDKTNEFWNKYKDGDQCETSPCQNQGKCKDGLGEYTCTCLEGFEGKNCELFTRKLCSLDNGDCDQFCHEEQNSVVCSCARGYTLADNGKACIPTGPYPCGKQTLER

## Nc1nccc2cc(CNC(=O)c3cnn(Cc4ccc(Cn5ccccc5=O)cc4)c3)ccc12 [Compound 6, Nc1nccc2cc(ccc12)CNC(=O)c1cnn(c1)Cc1ccc(cc1)CN1C=CC=CC1=O]
In vitro [1]
  Papp A→B: 2 ×10⁻⁶ cm/s
In vitro [2]
  microsomal CLint: 37 µL/min/mg

## COCc1nn(Cc2ccc(Cn3ccccc3=O)cc2)cc1C(=O)NCc1c(F)ccc(OC)c1F [Compound 13b, COCc1nn(cc1C(=O)NCc1c(ccc(c1F)OC)F)Cc1ccc(cc1)CN1C=CC=CC1=O]
other
  kinetic sol 0.1 N HCl: >0.12 mg/mL
  kinetic sol aq assay buffer (pH 7.4): >0.12 mg/mL
Rat pharmacokinetics
  clearance at 24 h: 12.8 mL/min/kg
Dog pharmacokinetics
  clearance at 24 h: 11.5 mL/min/kg
Human PKa
  kinetics (in words): fast kinetics
Human PKa; lipophilic ligand efficiency
  LLE: 5.4

## COCc1nn(Cc2ccc(Cn3ccccc3=O)cc2)cc1C(=O)NCc1cccc(OC)c1F [Compound 13d, COCc1nn(cc1C(=O)NCc1cccc(c1F)OC)Cc1ccc(cc1)CN1C=CC=CC1=O]
other
  kinetic sol 0.1 N HCl: >0.12 mg/mL
  kinetic sol aq assay buffer (pH 7.4): >0.12 mg/mL

## COc1cccc(CNC(=O)c2cn(Cc3ccc(Cn4ccccc4=O)cc3)nc2N(C)C)c1F [Compound 13e, COc1cccc(c1F)CNC(=O)c1cn(nc1N(C)C)Cc1ccc(cc1)CN1C=CC=CC1=O]
other
  kinetic sol 0.1 N HCl: >0.12 mg/mL
  kinetic sol aq assay buffer (pH 7.4): >0.12 mg/mL

## COc1cccc(CNC(=O)c2cn(Cc3ccc(Cn4ccccc4=O)cc3)nc2C2CC2)c1F [Compound 13f, COc1cccc(c1F)CNC(=O)c1cn(nc1C1CC1)Cc1ccc(cc1)CN1C=CC=CC1=O]
other
  kinetic sol 0.1 N HCl: >0.11 mg/mL
  kinetic sol aq assay buffer (pH 7.4): 0.058–0.11 mg/mL
Human PKa; lipophilic ligand efficiency
  LLE: 4.4

## COCc1nn(Cc2ccc(Cn3ccccc3=O)cc2)cc1C(=O)NCc1cccc(O)c1F [Compound 13g, COCc1nn(cc1C(=O)NCc1cccc(c1F)O)Cc1ccc(cc1)CN1C=CC=CC1=O]
other
  kinetic sol 0.1 N HCl: >0.12 mg/mL
  kinetic sol aq assay buffer (pH 7.4): >0.12 mg/mL

## CCc1cccc(CNC(=O)c2cn(Cc3ccc(Cn4ccccc4=O)cc3)nc2COC)c1F [Compound 13h, CCc1cccc(c1F)CNC(=O)c1cn(nc1COC)Cc1ccc(cc1)CN1C=CC=CC1=O]
other
  kinetic sol aq assay buffer (pH 7.4): >0.12 mg/mL
physchem
  solubility kinetic: 29 to 59 µg/mL (≈ 59.4 to 121 µM)
Human PKa
  LLE: 3.7

## COCc1nn(Cc2ccc(Cn3ccccc3=O)cc2)cc1C(=O)NCc1cccc(OC(F)F)c1F [Compound 13i, COCc1nn(cc1C(=O)NCc1cccc(c1F)OC(F)F)Cc1ccc(cc1)CN1C=CC=CC1=O]
other
  kinetic sol aq assay buffer (pH 7.4): >0.12 mg/mL
physchem
  solubility kinetic: 63 to 120 µg/mL (≈ 120 to 228 µM)
Human PKa
  IC50: 0.15 µM
Human PKa; lipophilic ligand efficiency
  LLE: 4.2

## COCc1nn(Cc2ccc(Cn3ccccc3=O)cc2)cc1C(=O)NCc1c(Cl)ccc(OC)c1F [Compound 13j, COCc1nn(cc1C(=O)NCc1c(ccc(c1F)OC)Cl)Cc1ccc(cc1)CN1C=CC=CC1=O]
other
  kinetic sol 0.1 N HCl: >0.12 mg/mL
  kinetic sol aq assay buffer (pH 7.4): >0.12 mg/mL

## COCc1nn(Cc2ccc(Cn3ccccc3=O)cc2)cc1C(=O)NCc1c(C#N)ccc(OC)c1F [Compound 13k, COCc1nn(cc1C(=O)NCc1c(c(ccc1C#N)OC)F)Cc1ccc(cc1)CN1C=CC=CC1=O]
other
  kinetic sol 0.1 N HCl: >0.12 mg/mL
  kinetic sol aq assay buffer (pH 7.4): >0.12 mg/mL
Rat pharmacokinetics
  clearance at 24 h: 16 mL/min/kg

## COCc1nn(Cc2ccc(Cn3ccccc3=O)cc2)cc1C(=O)NCc1cc(OC)ccc1F [Compound 13l, COCc1nn(cc1C(=O)NCc1cc(ccc1F)OC)Cc1ccc(cc1)CN1C=CC=CC1=O]
other
  kinetic sol 0.1 N HCl: >0.12 mg/mL
  kinetic sol aq assay buffer (pH 7.4): >0.12 mg/mL

## COCc1nn(Cc2ccc(Cn3ccccc3=O)cc2)cc1C(=O)NCc1nccc(OC)c1C [Compound 14s, COCc1nn(cc1C(=O)NCc1nccc(c1C)OC)Cc1ccc(cc1)CN1C=CC=CC1=O]
[3]
  solubility at 4 h: > 100 µg/mL
Rat pharmacokinetics
  clearance at 24 h: 14 mL/min/kg
Factor XIa
  IC50: > 10 µM
thrombin
  IC50: 7.5 µM
plasmin
  IC50: > 10 µM
Factor XIIa
  IC50: > 10 µM
Tissue kallikrein (KLK1)
  IC50: > 10 µM

## COCc1nn(Cc2ccc(Cn3ccccc3=O)cc2)cc1C(=O)NCc1nccc(OC)c1F [Compound 14w, 3-Methoxymethyl-1-[4-(2-oxo-2H-pyridin-1-ylmethyl)-benzyl]-1H-pyrazole-4-carboxylic Acid (3-Fluoro-4-methoxy-pyridin-2-ylmethyl)-amide]
Bacterial mutagenicity
  Non-GLP Ames: no risk of genotoxicity
Rat pharmacokinetics
  clearance at 24 h: 11.7 mL/min/kg
tryptase
  IC50: > 10 µM
Dog pharmacokinetics
  clearance at 24 h: 8.7 mL/min/kg
[4]
  human plasma protein binding (PPB): 77%
trypsin
  IC50: > 10 µM
trypsin; listed as Sebetralstat
  IC50: > 40 µM
[5]
  pKa: 3.6
Panel of CYP450 enzymes
  CYP450 panel profile (in words): clean profiles up to the highest concentration tested
Factor Xa
  IC50: > 10 µM
Human PKa
  kinetics (in words): fast kinetics
hERG channel
  inhibition of hERG channel (in words): no significant inhibition

## COc1ccnc(CNC(=O)c2cn(Cc3ccc(Cn4ccccc4=O)cc3)nc2C(F)(F)F)c1F [Compound 16, COc1ccnc(c1F)CNC(=O)c1cn(nc1C(F)(F)F)Cc1ccc(cc1)CN1C=CC=CC1=O]
Rat pharmacokinetics
  clearance at 24 h: 7.1 mL/min/kg
Factor XIa
  IC50: > 10 µM
Dog pharmacokinetics
  clearance at 24 h: 10 mL/min/kg
[4]
  human plasma protein binding (PPB): 87%
thrombin
  IC50: > 10 µM
trypsin
  IC50: > 10 µM
plasmin
  IC50: > 10 µM
Factor XIIa
  IC50: > 10 µM
Panel of CYP450 enzymes
  CYP450 panel profile (in words): clean profiles up to the highest concentration tested
Human PKa
  kinetics (in words): fast kinetics
Tissue kallikrein (KLK1)
  IC50: > 10 µM
